Results reported in patent publication US12173018B2, “Penicillin-binding protein inhibitors” (priority 2018, dated 2024).
Values after ≈ are worked out from the molar mass of the structure shown. Where two headings read alike, the source gives them in different places.

Assays:
[1] = tested on: E. coli ATCC 25922; test: Broth microdilution MIC, E. coli ATCC 25922; assay type: cell-based; conditions: Escherichia coli
In short: (§1)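 Visual MIC readout after 16-20 h at 37° C in CLSI-format microdilution. Compounds tested as 2-fold series against a 5×10^5 CFU/mL inoculum in cation-supplemented Mueller-Hinton broth.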

[2] = tested on: E. coli AG100; test: Broth microdilution MIC, E. coli AG100 (wild-type parent); assay type: cell-based; conditions: Escherichia coli; wild-type parent E. coli AG100, broth microdilution; read-out: MIC E. coli AG100
In short: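 Starting inoculum of 5×10^5 CFU/mL, from colonies grown 3-5 h in Mueller-Hinton broth with divalent cations, added to two-fold compound dilution series.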

[3] = tested on: E. coli 901C; test: microbe, parasite or virus in culture; assay type: cell-based; conditions: Escherichia coli; hyper-permeable E. coli 901C, broth microdilution; read-out: MIC E. coli 901C
In short: as §1

[4] = tested on: E. coli AG100A; test: microbe, parasite or virus in culture; assay type: cell-based; conditions: Escherichia coli, read-out: MIC E. coli AG100A
In short: as §1

[5] = tested on: K. pneumoniae UMM; test: microbe, parasite or virus in culture; assay type: cell-based; conditions: Klebsiella pneumoniae; K. pneumoniae UMM producing SHV-5 and KPC-2; read-out: MIC K. pneumoniae UMM
In short: as §1

[6] = tested on: N. gonorrhoeae ATCC 49226; test: Liquid broth MIC, N. gonorrhoeae ATCC 49226; assay type: cell-based; conditions: Neisseria gonorrhoeae, ATCC49226; N. gonorrhoeae ATCC 49226, liquid broth; read-out: Minimum Inhibitory Concentration, N. gonorrhoeae ATCC 49226
Protocol: (§2) Additional antibacterial testing of the series was performed in wild-type reference strains of N. gonorrhoeae (ATCC 49226, FA1090, WHO F and FA19). Liquid broth-based assays were used for antibacterial testing of PBP inhibitors in Neisseria gonorrhoeae. Briefly, cryo-preserved bacterial cultures of clinical strains are streaked for isolation on GC Base agar (BD #228950 at 36 g/L autoclaved at 121° C. for 20 minutes to sterilize) with 1% Kellogg's supplement (40 g glucose, 0.5 g glutamine, 0.05 g ferric nitrate and 2 mg cocarboxylase per 100 mL deionized water filter sterilized through 0.2 μm syringe filters). Following incubation at 36° C. and 5% CO2 to allow growth of colonies, strains are aseptically sub-cultured from original agar plate onto 3 agar plates per strain 24 hours before inoculum preparation. 2-fold serial dilutions of test compounds are conducted in a 96 well plate with a final volume of 150 μL per well at 4/3-fold the final desired concentration. For preparation of assay inoculum, a direct suspension is prepared by aseptically swabbing all colonies from sub-cultured agar plates into culture tubes containing 2 mL of fresh GC broth with […]. After the dilution plates are set up, direct suspensions are then diluted in a cuvette containing GC broth (15 g proteose peptone 43, 1 g corn starch, 4 g dipotassium phosphate, 1 g monopotassium phosphate and 5 g sodium chloride per liter of deionized water are mixed on a stir plate for 20 minutes, pH adjusted to 7.2+/−0.2 pH units with 1 N HCl, centrifuged at 10,000×g for 20 minutes to pellet undissolved corn starch and then autoclaved at 121° C. for 20 minutes to sterilize) and the optical density is measured at 600 nm. Inocula are diluted such that 50 μL of this culture in […] results in a starting bacterial concentration of 5×10^5 CFU/mL when added to the dilution plates. The plates are incubated 40-42 hours at 36° C. and 5% CO2. The MIC is read visually as the lowest concentration well with no bacterial growth.

[7] = tested on: N. gonorrhoeae FA1090; test: Liquid broth MIC, N. gonorrhoeae FA1090; assay type: cell-based; conditions: Neisseria gonorrhoeae; N. gonorrhoeae FA1090, liquid broth; read-out: Minimum Inhibitory Concentration, N. gonorrhoeae FA1090
Protocol: as §2

[8] = tested on: N. gonorrhoeae WHO F; test: Liquid broth MIC, N. gonorrhoeae WHO F; assay type: cell-based; conditions: Neisseria gonorrhoeae; N. gonorrhoeae WHO F, liquid broth; read-out: Minimum Inhibitory Concentration, N. gonorrhoeae WHO F
Protocol: as §2

[9] = tested on: N. gonorrhoeae FA19; test: Liquid broth MIC, N. gonorrhoeae FA19; assay type: cell-based; conditions: Neisseria gonorrhoeae; N. gonorrhoeae FA19, liquid broth; read-out: Minimum Inhibitory Concentration, N. gonorrhoeae FA19
Protocol: as §2

[10] = molecular target: E. coli PBP3 (Escherichia coli (strain K12), UniProt P0AD68); test: E. coli PBP3 Bocillin-FL fluorescence polarization competition binding assay
In short: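 Steps: purified PBP (1.5 μM final) mixed with compound (0–1000 μM) in 50 mM Hepes pH 8.0, 300 mM NaCl, 5% glycerol; Bocillin-FL added to 0.1 μM; FP (ex 490, em 520 nm) followed for 60 min. Concentration reducing Bocillin-FL binding reported as EC50.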

[11] = tested on: engineered strain of Escherichia coli harboring CTX-M15; test: microbe, parasite or virus in culture; assay type: cell-based; conditions: Escherichia coli, read-out: Microbiological Activity (MIC in mg/L), E. coli DH5α/pLBII-CTX-M15, engineered strain producing CTX-M15
Protocol: Briefly, cryo-preserved bacterial cultures of challenge strains are streaked for isolation on appropriate agar medium, in this case Mueller Hinton II agar. Following incubation to allow growth of the colonies, plates are sealed with parafilm and stored refrigerated for up to two weeks. For preparation of assay inoculum and to ensure low variability, at least 5 colonies are picked from the agar plates with an inoculating loop and aseptically transferred to a culture tube containing 3 mL of Mueller-Hinton Broth (supplemented with divalent cations to required levels based on Manufacturers' certification). The broth culture is grown for 3-5 hours at 37° C. with shaking at 200 rpm. Meanwhile, 2-fold serial dilutions of test compounds are conducted in a 96 well plate with a final volume of 75 μL per well at 2-fold the final desired concentration. After the dilution plates are set up the growing cultures are then diluted in a cuvette containing MH II broth and the optical density is measured at 600 nm. The Inoculum is diluted such that 75 μL of this culture in Mueller-Hinton Broth results in a starting bacterial concentration of 5×10^5 CFU/mL when added to the dilution plates. The plates are incubated for 16-20 hours at 37° C. The MIC values are read visually as the lowest concentration well with no bacterial growth.
To determine if test compounds were affected by CTX-M15, the most abundant extended spectrum […] in clinical settings worldwide, the inhibition of the growth of an engineered strain of Escherichia coli harboring CTX-M15 was tested. This strain was constructed by cloning the gene encoding CTX-M15 into the NdeI and BamHI restriction endonuclease sites of plasmid pLBII, placing the gene(s) under the control of the Lac promoter. The constructed expression plasmid for CTX-M15 was used to transform competent E. coli DH5α cells to make the engineered strain, including an empty pLBII vector control strain. The classic cell based broth microdilution MIC assay was employed as described above with the addition of control antibiotics, known to be degraded by β-lactamases (Ceftazidime, piperacillin and piperacillin+tazobactam).

[12] = tested on: E. coli D22; test: microbe, parasite or virus in culture; assay type: cell-based; conditions: Escherichia coli; hyper-permeable E. coli D22, broth microdilution; read-out: MIC E. coli D22
In short: as §1

[13] = tested on: K. pneumoniae SI-117; test: microbe, parasite or virus in culture; assay type: cell-based; conditions: Klebsiella pneumoniae, SI117, read-out: MIC K. pneumoniae SI-117
In short: as §1

[14] = tested on: K. pneumoniae 848844; test: microbe, parasite or virus in culture; assay type: cell-based, Klebsiella pneumoniae; conditions: Klebsiella pneumoniae; K. pneumoniae 848844 producing SHV-11 and KPC-2; read-out: MIC K. pneumoniae 848844
In short: as §1

[15] = fluorescence polarization competition binding with Bocillin-FL, read-out: E. coli K12 PBP3 Potency

Sequence of E. coli PBP3 (P0AD68 whole entry): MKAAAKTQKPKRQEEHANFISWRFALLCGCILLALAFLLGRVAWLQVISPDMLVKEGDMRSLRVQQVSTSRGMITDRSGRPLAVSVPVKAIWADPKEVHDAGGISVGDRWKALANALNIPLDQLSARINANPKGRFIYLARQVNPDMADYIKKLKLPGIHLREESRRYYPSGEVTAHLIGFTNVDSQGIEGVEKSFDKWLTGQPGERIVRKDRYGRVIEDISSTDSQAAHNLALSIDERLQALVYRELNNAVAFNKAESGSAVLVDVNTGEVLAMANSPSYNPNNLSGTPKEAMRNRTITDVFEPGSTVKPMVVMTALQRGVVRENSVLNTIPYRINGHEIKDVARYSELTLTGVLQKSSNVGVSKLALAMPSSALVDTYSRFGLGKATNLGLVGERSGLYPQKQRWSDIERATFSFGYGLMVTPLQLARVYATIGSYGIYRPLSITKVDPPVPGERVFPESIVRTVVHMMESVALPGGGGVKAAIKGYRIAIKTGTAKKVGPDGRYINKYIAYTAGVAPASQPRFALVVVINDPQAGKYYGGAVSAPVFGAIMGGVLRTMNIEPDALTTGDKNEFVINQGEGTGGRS

Compound	MIC [6] [mg/L]	MIC [7] [mg/L]	MIC [8] [mg/L]	MIC [9] [mg/L]	EC50 [10, 15] [µM]	MIC [11] [mg/L]	EC50 [10] [µM]	also measured
CCN1CCN(C(=O)N[C@@H](C(=O)N[C@H]2Cc3cccc(C(=O)O)c3OB2O)c2ccc(O)c(O)c2)C(=O)C1=O [Example 39, (R)-3-((R)-2-(3,4-dihydroxyphenyl)-2-(4-ethyl-2,3-dioxopiperazine-1-carboxamido)acetamido)-2-hydroxy-3,4-dihydro-2H-benzo[e][1,2]oxaborinine-8-carboxylic acid]	1 to 2 (≈ 1.85 to 3.7 µM)	< 0.125	0.25 to 0.5 (≈ 0.463 to 0.925 µM)	1 to 2 (≈ 1.85 to 3.7 µM)	–	–	–	MIC ([1]; ATCC25922, E. coli ATCC 25922, broth microdilution, read-out: MIC E. coli 25922): 8 to 16 mg/L; MIC [2]: 8 to 16 mg/L; MIC [3]: 0.5 to 1 mg/L; MIC [4]: 2 to 4 mg/L; MIC [5]: 8 to 16 mg/L
C[C@@H](O)[C@@H](NC(=O)N1CCN(CCF)C(=O)C1=O)C(=O)N[C@H]1Cc2cc(O)c(O)c(C(=O)O)c2OB1O [Example 94, (R)-3-((2R,3R)-2-(4-(2-fluoroethyl)-2,3-dioxopiperazine-1-carboxamido)-3-hydroxybutanamido)-2,6,7-trihydroxy-3,4-dihydro-2H-benzo[e][1,2]oxaborinine-8-carboxylic acid]	–	–	–	–	> 500	128 to 256 (≈ 243 to 486 µM)	–	–
CCN1CCN(C(=O)N[C@@H](C(=O)N[C@H]2Cc3cc(O)c(O)c(C(=O)O)c3OB2O)[C@@H](C)O)C(=O)C1=O [Example 95, (R)-3-((2R,3R)-2-(4-ethyl-2,3-dioxopiperazine-1-carboxamido)-3-hydroxybutanamido)-2,6,7-trihydroxy-3,4-dihydro-2H-benzo[e][1,2]oxaborinine-8-carboxylic acid]	–	–	–	–	> 500	128 to 256 (≈ 252 to 504 µM)	–	–
CCN1CCN(C(=O)N[C@@H](C(=O)N[C@H]2Cc3cc(O)c(O)c(C(=O)O)c3OB2O)[C@H](C)O)C(=O)C1=O [Example 96, (R)-3-((2R,3S)-2-(4-ethyl-2,3-dioxopiperazine-1-carboxamido)-3-hydroxybutanamido)-2,6,7-trihydroxy-3,4-dihydro-2H-benzo[e][1,2]oxaborinine-8-carboxylic acid]	–	–	–	–	> 500	128 to 256 (≈ 252 to 504 µM)	–	–
CCN1CCN(C(=O)N[C@@](C)(C(=O)N[C@H]2Cc3cccc(C(=O)O)c3OB2O)c2csc(N)n2)C(=O)C1=O [Example 97, (R)-3-((R)-2-(2-aminothiazol-4-yl)-2-(4-ethyl-2,3-dioxopiperazine-1-carboxamido)propanamido)-2-hydroxy-3,4-dihydro-2H-benzo[e][1,2]oxaborinine-8-carboxylic acid]	–	–	–	–	> 500	128 to 256 (≈ 235 to 470 µM)	–	–
CCN1CCN(C(=O)NC(C(=O)N[C@H]2Cc3cccc(C(=O)O)c3OB2O)c2ccsc2)C(=O)C1=O (stereo partly drawn) [Example 137, (3R)-3-(2-(4-ethyl-2,3-dioxopiperazine-1-carboxamido)-2-(thiophen-3-yl)acetamido)-2-hydroxy-3,4-dihydro-2H-benzo[e][1,2]oxaborinine-8-carboxylic acid]	1 to 2 (≈ 1.94 to 3.89 µM)	< 0.125	< 0.125	4 to 8 (≈ 7.78 to 15.6 µM)	–	–	30 to 500	–
CCN1CCN(C(=O)NC(C(=O)N[C@H]2Cc3ccc(F)c(C(=O)O)c3OB2O)c2cnc(N)s2)C(=O)C1=O (stereo partly drawn) [Example 152, (3R)-3-(2-(2-aminothiazol-5-yl)-2-(4-ethyl-2,3-dioxopiperazine-1-carboxamido)acetamido)-7-fluoro-2-hydroxy-3,4-dihydro-2H-benzo[e][1,2]oxaborinine-8-carboxylic acid]	1 to 2 (≈ 1.82 to 3.65 µM)	0.25 to 0.5 (≈ 0.456 to 0.912 µM)	0.25 to 0.5 (≈ 0.456 to 0.912 µM)	1 to 2 (≈ 1.82 to 3.65 µM)	–	–	30 to 500	–
Nc1ncc(C(NC(=O)N2CCN(CCF)C(=O)C2=O)C(=O)N[C@H]2Cc3ccc(F)c(C(=O)O)c3OB2O)s1 (stereo partly drawn) [Example 153, (3R)-3-(2-(2-aminothiazol-5-yl)-2-(4-(2-fluoroethyl)-2,3-dioxopiperazine-1-carboxamido)acetamido)-7-fluoro-2-hydroxy-3,4-dihydro-2H-benzo[e][1,2]oxaborinine-8-carboxylic acid]	1 to 2 (≈ 1.77 to 3.53 µM)	0.25 to 0.5 (≈ 0.441 to 0.883 µM)	0.25 to 0.5 (≈ 0.441 to 0.883 µM)	1 to 2 (≈ 1.77 to 3.53 µM)	–	–	30 to 500	–
CCN1CCN(C(=O)NC(C(=O)N[C@H]2Cc3cccc(C(=O)O)c3OB2O)c2ncc(OC(C)=O)cc2F)C(=O)C1=O (stereo partly drawn) [Example 207, (3R)-3-(2-(5-acetoxy-3-fluoropyridin-2-yl)-2-(4-ethyl-2,3-dioxopiperazine-1-carboxamido)acetamido)-2-hydroxy-3,4-dihydro-2H-benzo[e][1,2]oxaborinine-8-carboxylic acid]	0.25 to 0.5 (≈ 0.427 to 0.854 µM)	< 0.125	< 0.125	1 to 2 (≈ 1.71 to 3.42 µM)	–	–	–	MIC ([1]; ATCC25922, read-out: MIC E. coli 25922): 8 to 16 mg/L; MIC [2]: 8 to 16 mg/L; MIC [3]: < 0.25 mg/L; MIC [4]: 0.5 to 1 mg/L; MIC [12]: 0.5 to 1 mg/L; MIC [13]: 32 to 64 mg/L; MIC [5]: 8 to 16 mg/L; MIC [14]: 32 to 64 mg/L
CCN1CCN(C(=O)NC(C(=O)N[C@H]2Cc3ccc(Cl)c(C(=O)O)c3OB2O)c2csc(N)n2)C(=O)C1=O (stereo partly drawn) [Example 215, (3R)-3-(2-(2-aminothiazol-4-yl)-2-(4-ethyl-2,3-dioxopiperazine-1-carboxamido)acetamido)-7-chloro-2-hydroxy-3,4-dihydro-2H-benzo[e][1,2]oxaborinine-8-carboxylic acid]	4 to 8 (≈ 7.08 to 14.2 µM)	1 to 2 (≈ 1.77 to 3.54 µM)	0.25 to 0.5 (≈ 0.443 to 0.885 µM)	4 to 8 (≈ 7.08 to 14.2 µM)	–	–	30 to 500	–
